Results on seven compounds are retold here after patent publication US6489490B1, “2-(2-chlorophenyl)-3,4-dihydro-2h-pyrrol derivatives” (Bayer Aktiengesellschaft, priority 1998, dated 2002).

Like-named read-outs stand apart in the source and are kept apart here.

Series [1] can be described thus: log P determined by HPLC analysis. The format is physicochemical. The method, then: log P*=[…] logarithm to base 10 of the […] partition coefficient, determined by HPLC analysis on 125×4.0 mm Kromasil 120 C 18 (5 μm), using water/acetonitrile as mobile phase; flow rate: 1.5 ml/min.
The subject of series [2] is all stages of the greenhouse red spider mite (Tetranychus urticae). Briefly: Tetranychus test (OP-resistant/dip treatment). To be noted: concentration of active compound at most 0.1%, after 6 days, dipped bean plants. The format is in vivo. The method, then:
Tetranychus Test (OP-resistant/dip Treatment)
(§1) Solvent: 7 parts by weight of dimethylformamide
(§2) Emulsifier: 1 part by weight of alkylaryl polyglycol ether
To produce a suitable preparation of active compound, 1 part by weight of active compound is mixed with the stated amounts of solvent and emulsifier, and the concentrate is diluted with emulsifier-containing water to the desired concentration.
Bean plants (Phaseolus vulgaris) which are heavily infested by all stages of the greenhouse red spider mite (Tetranychus urticae) are dipped into a preparation of the active compound of the desired concentration.
After the desired period of time, the kill in % is determined. 100% means that all spider mites have been killed; 0% means that none of the spider mites have been killed.

Series [3] relates to larvae of the mustard beetle (Phaedon cochleariae). Put plainly: Phaedon larvae test. The format is in vivo. To be noted: concentration of active compound 0.004%, after 6 days, dipped cabbage leaves. As to the method: Phaedon Larvae Test Solvent: 7 parts by weight of dimethylformamide Emulsifier: 1 part by weight of alkylaryl polyglycol ether To produce a suitable preparation of active compound, 1 part by weight of active compound is mixed with the stated amounts of solvent and emulsifier, and the concentrate is diluted with emusifier-containing water to the desired concentration. Cabbage leaves (Brassica oleracea) are treated by being dipped into the preparation of active compound of the desired concentration and are populated with larvae of the mustard beetle (Phaedon cochleariae) while the leaves are still moist.

Series [4] has as its system caterpillars of the diamond-back moth (Plutella xylostella). Briefly: Plutella test. The following applies: concentration of active compound 0.004%, after 6 days, dipped cabbage leaves. The format is in vivo. As to the method: as §1, §2
(§3) To produce a suitable preparation of active compound, 1 part by weight of active compound is mixed with the stated amounts of solvent and emulsifier, and the concentrate is diluted with emusifier-containing water to the desired concentration.
Cabbage leaves (Brassica oleracea) are treated by being dipped into the preparation of active compound of the desired concentration and are populated with caterpillars of the diamond-back moth (Plutella xylostella) while the leaves are still moist.
(§4) After the desired period of time, the kill in % is determined. 100% means that all caterpillars have been killed; 0% means that none of the caterpillars have been killed.

The subject of series [5] is caterpillars of the cotton bollworm (Heliothis armigera). Briefly: Heliothis armigera test. The format is in vivo. The following applies: concentration of active compound 0.004%, after 6 days, dipped soybean shoots. The method, then: as §1, §2, §3
Soybean shoots (Glycine max) are treated by being dipped into the preparation of active compound of the desired concentration and are populated with caterpillars of the cotton bollworm (Heliothis armigera) while the leaves are still moist.
as §4

Series [6] has as its system caterpillars of the army-worm (Spodoptera frugiperda). Briefly: Spodoptera frugiperda test. The format is in vivo. To be noted: concentration of active compound at most 0.1%, after 6 days, dipped cabbage leaves. As to the method: Spodoptera frugiperda Test
as §1, §2, §3
Cabbage leaves (Brassica oleracea) are treated by being dipped into the preparation of active compound of the desired concentration and are populated with caterpillars of the army-worm (Spodoptera frugiperda) while the leaves are still moist.
as §4

[7] abbreviates: pH 2.3, HPLC, read-out: log P (pH 2.3).

On to `Clc1ccccc1C1=NC(c2ccccc2)CC1` (stereo not drawn) [Example I-20], for which the “log P* (pH 7.5)” value in series [1] (pH 7.5, HPLC, Kromasil 120 C 18, water/acetonitrile) came out at 3.6 l. Besides, in series [2], the kill in % came to 100%.
In the case of `CC(C)(C)OC(=O)N1C(=O)CCC1c1ccc(-c2ccc(OC(F)(F)C(F)F)cc2)cc1` (stereo not drawn) [Example IX-43], the chromatographic logP in series [1] (setting [7]) amounted to 3.96.
As to `FC(F)(F)Oc1ccc(-c2ccc(C3CCC(c4ccccc4Cl)=N3)cc2)cc1` (stereo not drawn) [Example I-7], the kill in % in series [3], in series [4], in series [2], in series [5] and in series [6] was 100% throughout.
As for `O=C1CCC(c2ccc(-c3ccc(OC(F)(F)C(F)F)cc3)cc2)N1` (stereo not drawn) [Example XI-43], the chromatographic logP in series [1] (setting [7]) was found to be 2.79.
As for `FC(F)C(F)(F)Oc1ccc(-c2ccc(C3CCC(c4ccccc4Cl)=N3)cc2)cc1` (stereo not drawn) [Example I-43], the chromatographic logP in series [1] (setting [7]) amounted to 4.01.
As for `O=C(c1ccccc1Cl)C1CC(c2ccccc2)N(C(=O)c2ccccc2Cl)C1=O` (stereo not drawn) [Example G(II)-20, 1,3-(2-chlorobenzoyl)-5-phenyl-pyrrolidin-2-one], the chromatographic logP in series [1] (pH 2.5, read-out: log P (pH 2.5)) amounted to 3.91.
On to `CC(C)(C)OC(=O)NC(CCC(=O)c1ccccc1Cl)c1ccc(-c2ccc(OC(F)(F)C(F)F)cc2)cc1` (stereo not drawn) [Example VIII-43], for which the chromatographic logP in series [1] (setting [7]) amounted to 4.94.
